Measured values reported in US20230024108A1, “ADENOSINE A2A RECEPTOR ANTAGONISTS” (Teon Therapeutics, Inc., priority 2019, published 2023).

How the values were obtained:
phospho-CREB (pCREB) = experiment: Human whole blood phospho-CREB (pCREB) assay / modulation of pCREB in human immune cells; type: cell-based; settings: agonist (NECA or CGS-21680)-stimulated human blood cells
Procedure: Fresh human blood samples are derived from healthy volunteers and processed in heparin tubes. 67.5 ul of whole blood is aliquoted to each well in a 96-well plate and incubated at 37° C. for 30 min. Testing compounds are diluted with DMSO to make 8-point 3-fold serial dilution and 3.5 ul (20×) is added to each well. Cells are incubated with the compounds at 37° C. for 30 min. NECA (5 uM) is then added to each well and cells are incubated for 30 min at 37° C. Following the stimulation, cells are transferred to a 96-well deep well plates and fixed with 1 ml/well of lyse/fix buffer (1×) (BD Biosciences #558049) with vigorous shake at 37° C. for 10 min. Cells are centrifuged at 600 g for 6 min and washed twice with PBS, followed by addition of 800 ul/well Perm buffer III (BD Biosciences #558050). Cells are then pelleted at 600 g for 6 min, washed with FACS buffer (PBS+0.2% BSA+1 mM EDTA) and stained for 40 min at room temperature in the dark with an antibody cocktail containing PE mouse anti-human CD3 (BD Biosciences #555333, 1 ul/well), FITC mouse anti-human CD4 (BD Biosciences #5555346, 1 ul/well), PerCP-Cy™5.5 mouse anti-human CD8 (BD Biosciences #565310, 1 ul/well) and phospho-CREB (Ser133) (87G3) Rabbit mAb (Alexa Fluor® 647 Conjugate, CST #14001, 0.5 ul/well). Cells are then washed twice with FACS buffer and acquired on a flow cytometer (Sony Cell Sorter SH800). Data were analyzed using FlowJo version 9. The level of CREB phosphorylation from unstimulated cells (Low control: LC) and NECA-stimulated cells (High control: HC) are determined as mean fluorescent intensity (MFI) in stimulated condition/mean fluorescent intensity in unstimulated condition. % Inhibition is calculated as (MFI of HC-MFI of assay well)/(MFI of HC-MFI of LC)×100%. Data are analyzed and IC50s calculated using GraphPad Prism 5 and the model “log(inhibitor) vs. response—Variable slope”.
The A2A receptor is known to mediate CREB phosphorylation.
Venous blood from healthy volunteers, all of whom signed an informed consent approved by the Ethics Committee (FOR—UIC-BV-050-01-01 ICF HBS HD Version 5.0), was obtained via ImmuneHealth (Centre Hospitalier Universitaire Tivoli, La Louviere,
15 Belgium). Peripheral blood cells were treated with A2AR agonists CGS-21680 or NECA (Sigma-Aldrich, Diegem, Belgium), and a serial dilution of compounds disclosed herein (all used stock solutions at 10 mM in DMSO). All dilutions were prepared in RPMI1640 medium (with UltraGlutamine; Lonza, Venders, Belgium), and cells were incubated with compounds in a 37° C. humidified tissue culture incubator with 5% CO2.
After stimulation, cells were fixed and permeabilized, followed by intracellular staining using mouse anti-human pCREB antibodies (Clone J151-21; BD Biosciences) at room temperature. Data were acquired using an LSRFortessa flow cytometer (BD Biosciences) and analyzed using FlowJo software (FlowJo, LLC, Ashland, Oregon).

human A2A AdoR = target: T1, human A2A AdoR (Homo sapiens, UniProt P29274); experiment: Adenosine receptor binding assay, A2A ([3H]-CGS-21680); settings: membranes of HEK-293 cells expressing human A2A AdoR; read-out: hA2A IC50
T1 construct: purchased PerkinElmer RBHA2AM400UA
T1 sequence (P29274 whole entry): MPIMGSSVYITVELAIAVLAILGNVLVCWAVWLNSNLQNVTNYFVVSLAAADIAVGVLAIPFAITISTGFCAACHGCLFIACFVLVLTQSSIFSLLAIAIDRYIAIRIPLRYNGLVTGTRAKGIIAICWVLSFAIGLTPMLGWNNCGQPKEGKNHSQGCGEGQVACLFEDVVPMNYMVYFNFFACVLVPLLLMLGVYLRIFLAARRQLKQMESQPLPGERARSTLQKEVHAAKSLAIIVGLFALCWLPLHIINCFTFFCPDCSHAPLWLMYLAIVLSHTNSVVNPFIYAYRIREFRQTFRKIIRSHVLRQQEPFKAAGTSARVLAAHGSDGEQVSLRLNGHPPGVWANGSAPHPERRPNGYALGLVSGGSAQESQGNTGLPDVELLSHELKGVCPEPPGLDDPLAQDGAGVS
Procedure: (§1) Membranes prepared from CHO-K1 cells stably expressing Human AiAdoR (ES-010-M400UA), HEK-293 cells stably expressing human A2A AdoR (RBHA2AM400UA), HEK-293 cells stably expressing human A2B AdoR (ES-013-M400UA) and CHO-K1 cells stably expressing Human A3 AdoR (ES-012-M400UA) were purchased from PerkinElmer (Waltham, Mass., USA) and stored at −80° C. until use. Binding assays are performed using the radioligands. The final concentrations are as follows: [3H]-DPCPX (PerkinElmer, NET974001MC) at 1 nM for A1AdoR; [^3H]-CGS-21680 (PerkinElmer, NET1021250UC) at 6 nM for A2AAdoR, [3H]-DPCPX (PerkinElmer, NET974001MC) at 8 nM for A2BAdoR; [^3H]-HEMADO (ARC, Cat: ART1456) at 1 nM for A3AdoR. Testing compounds are diluted with DMSO to make 8-point 4-fold serial dilution. Nonspecific binding (Low control: LC) and total binding (High control: HC) are determined in the presence or absence of saturated cold ligand. Specific binding is calculated by subtracting nonspecific binding from total binding. All assays are performed in a final volume of 200 μl containing 1 μl of the test compound in DMSO, 100 μl of membrane preparation, and 99 μl of the radioligand in assay buffer (A1AdoR: 25 mM HEPES pH 7.4, 5 mM MgCl2, 1 mM CaCl2), 100 mM NaCl; A2AAdoR: 50 mM Tris HCl pH 7.4, 10 mM MgCl2, 1 mM EDTA; A2BAdoR: 50 mM HEPES pH 7.0, 5 mM MgCl2, 1 mM EDTA; A3AdoR: 25 HEPES pH 7.4, 10 mM MgCl2, 1 mM CaCl2), 0.5% BSA). The incubation is performed at room temperature with shaking at 300 rpm for 1 hour for A1AdoR, A2BAdoR and A3AdoR and 2 hours for A2AAdoR. After the incubation, the assay mixture is filtered through 96 GF/C filter plates (Perkin Elmer #6005174) using Perkin Elmer Filtermate Harvester, and then washed four times with ice-cold washing buffer (A1AdoR: 25 mM HEPES pH 7.4, 5 mM MgCl2, 1 mM CaCl2), 100 mM NaCl; A2AAdoR: 50 mM Tris HCl pH 7.4, 154 mM NaCl; A2BAdoR: 50 mM HEPES pH 6.5, 5 mM MgCl2, 1 mM EDTA, 0.2% BSA; A3AdoR: 50 mM Tris HCl pH 7.4). The filters are dried for 1 hour at 50° C. and [^3H] trapped on filter counted for radioactivity in Perkin Elmer Microscint 20 cocktail (#6013329) using Perkin Elmer MicroBeta2 Reader. The results are expressed as a percent inhibition of the control radioligand specific binding calculated using the following equation: % Inhibition=(1−(Assay well-Average_LC)/(Average_HC−Average_LC))×100%. Data are analyzed and IC50 is calculated using GraphPad Prism 5 and the model “log(inhibitor) vs. response—Variable slope”. The binding affinity of the compounds is determined by using the Cheng and Prusoff equation Ki=IC50/(1+[radioligand]/Kd).

A1AdoR = target: T2, A1AdoR (Homo sapiens, UniProt P30542); experiment: Adenosine receptor binding assay, A1 ([3H]-DPCPX); settings: ratio A1 vs A2A binding
T2 construct: purchased PerkinElmer ES-010-M400UA
T2 sequence (P30542 1-326): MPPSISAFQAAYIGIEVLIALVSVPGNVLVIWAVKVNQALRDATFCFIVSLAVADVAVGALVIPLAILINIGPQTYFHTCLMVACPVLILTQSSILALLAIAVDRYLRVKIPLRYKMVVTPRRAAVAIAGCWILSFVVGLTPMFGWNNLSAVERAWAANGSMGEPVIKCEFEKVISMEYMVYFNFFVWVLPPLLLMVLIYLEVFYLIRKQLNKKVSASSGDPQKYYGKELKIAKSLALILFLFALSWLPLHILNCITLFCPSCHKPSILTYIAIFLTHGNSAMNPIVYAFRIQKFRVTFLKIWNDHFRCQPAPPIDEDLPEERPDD
Procedure: as §1

N#Cc1c(Cl)c2c(nc(N)n3nc(-c4ccccn4)nc23)n1CCN1CCN(c2cc(-c3ncco3)ccc2F)CC1
EC50 (phospho-CREB (pCREB)): 0.02 to 0.1 µM
IC50 (human A2A AdoR): ≤ 0.02 µM

CC#Cc1nc2c3ncn(CCN4CCN(c5ccc(OC(C)(C)C(=O)O)cc5)CC4)c3nc(N)n2n1 [2-(4-(4-(2-(5-amino-8-(prop-1-yn-1-yl)-3H-[1,2,4]triazolo[5,1-i]purin-3-yl)ethyl)piperazin-1-yl)phenoxy)-2-methylpropanoic acid]
A1/A2A Selectivity (A1AdoR): b (greater than 100 but less than or equal to 1000)
IC50 (human A2A AdoR): 0.02 to 0.1 µM

Nc1nc2c(ncn2CCN2CCc3ncc(-c4nccs4)cc3C2)c2nc(-c3ccccn3)nn12
A1/A2A Selectivity (A1AdoR): c (greater than 0 but less than or equal to 100)
IC50 (human A2A AdoR): ≤ 0.02 µM

Cc1cn(CCN2CCCN(c3cc(-c4ncco4)ccc3F)CC2)c2nc(N)n3nc(-c4ccccn4)nc3c12 [7-(2-(4-(2-fluoro-5-(oxazol-2-yl)phenyl)-1,4-diazepan-1-yl)ethyl)-9-methyl-2-(pyridin-2-yl)-7H-pyrrolo[3,2-e][1,2,4]triazolo[1,5-c]pyrimidin-5-amine]
A1/A2A Selectivity (A1AdoR): c (greater than 0 but less than or equal to 100)
IC50 (human A2A AdoR): ≤ 0.02 µM

NC(=O)c1c(Cl)c2c(nc(N)n3nc(-c4ccccn4)nc23)n1CCN1CCN(c2ccc(OCC(=O)O)cc2)CC1 [2-(4-(4-(2-(5-amino-8-carbamoyl-9-chloro-2-(pyridin-2-yl)-7H-pyrrolo[3,2-e][1,2,4]triazolo[1,5-c]pyrimidin-7-yl)ethyl)piperazin-1-yl)phenoxy)acetic acid]
A1/A2A Selectivity (A1AdoR): b (greater than 100 but less than or equal to 1000)
IC50 (human A2A AdoR): ≤ 0.02 µM

N#Cc1ccc(N2CCN(CCn3c(C(=O)O)c(Cl)c4c3nc(N)n3nc(-c5ccccn5)nc43)CC2)c(F)c1 [5-amino-9-chloro-7-(2-(4-(4-cyano-2-fluorophenyl)piperazin-1-yl)ethyl)-2-(pyridin-2-yl)-7H-pyrrolo[3,2-e][1,2,4]triazolo[1,5-c]pyrimidine-8-carboxylic acid]
A1/A2A Selectivity (A1AdoR): b (greater than 100 but less than or equal to 1000)
IC50 (human A2A AdoR): ≤ 0.02 µM

Cc1c(C(N)=O)n(CCN2CCN(c3ccncc3)CC2)c2nc(N)n3nc(-c4ccccn4)nc3c12 [5-amino-9-methyl-2-(pyridin-2-yl)-7-(2-(4-(pyridin-4-yl)piperazin-1-yl)ethyl)-7H-pyrrolo[3,2-e][1,2,4]triazolo[1,5-c]pyrimidine-8-carboxamide]
A1/A2A Selectivity (A1AdoR): c (greater than 0 but less than or equal to 100)
IC50 (human A2A AdoR): ≤ 0.02 µM

Cc1c(C(=O)O)n(CCN2CCCN(c3cc(-c4ncco4)ccc3F)CC2)c2nc(N)n3nc(-c4ccccn4)nc3c12 [5-amino-7-(2-(4-(2-fluoro-5-(oxazol-2-yl)phenyl)-1,4-diazepan-1-yl)ethyl)-9-methyl-2-(pyridin-2-yl)-7H-pyrrolo[3,2-e][1,2,4]triazolo[1,5-c]pyrimidine-8-carboxylic acid]
A1/A2A Selectivity (A1AdoR): c (greater than 0 but less than or equal to 100)
IC50 (human A2A AdoR): 0.02 to 0.1 µM

Cc1c(C(N)=O)n(CCN2CCN(c3ccc(C#N)cc3F)CC2)c2nc(N)n3nc(-c4ccccn4)nc3c12 [5-amino-7-(2-(4-(4-cyano-2-fluorophenyl)piperazin-1-yl)ethyl)-9-methyl-2-(pyridin-2-yl)-7H-pyrrolo[3,2-e][1,2,4]triazolo[1,5-c]pyrimidine-8-carboxamide]
A1/A2A Selectivity (A1AdoR): b (greater than 100 but less than or equal to 1000)
IC50 (human A2A AdoR): ≤ 0.02 µM

CC#Cc1nc2c3ncn(CCN4CCc5ncc(C6COC6)cc5C4)c3nc(N)n2n1
A1/A2A Selectivity (A1AdoR): b (greater than 100 but less than or equal to 1000)
IC50 (human A2A AdoR): 0.02 to 0.1 µM

COC(=O)c1cc2c(nc(N)n3nc(-c4ccccn4)nc23)n1CCN1CCN(c2cc(-c3ncco3)ccc2F)CC1 [methyl 5-amino-7-(2-(4-(2-fluoro-5-(oxazol-2-yl)phenyl)piperazin-1-yl)ethyl)-2-(pyridin-2-yl)-7H-pyrrolo[3,2-e][1,2,4]triazolo[1,5-c]pyrimidine-8-carboxylate]
A1/A2A Selectivity (A1AdoR): a (greater than 1000)
IC50 (human A2A AdoR): ≤ 0.02 µM

NC(=O)c1c(Cl)c2c(nc(N)n3nc(-c4ccccn4)nc23)n1CCN1CCN(c2ccc(F)cc2F)CC1
A1/A2A Selectivity (A1AdoR): c (greater than 0 but less than or equal to 100)
IC50 (human A2A AdoR): ≤ 0.02 µM

CC(C)(Oc1ccc(N2CCN(CCn3cnc4c3nc(N)n3nc(-c5ccccn5)nc43)CC2)c(F)c1)C(=O)O [2-(4-(4-(2-(5-amino-8-(pyridin-2-yl)-3H-[1,2,4]triazolo[5,1-i]purin-3-yl)ethyl)piperazin-1-yl)-3-fluorophenoxy)-2-methylpropanoic acid]
A1/A2A Selectivity (A1AdoR): b (greater than 100 but less than or equal to 1000)
IC50 (human A2A AdoR): ≤ 0.02 µM

Nc1nc2c(ncn2CCN2CCN(c3cc(-c4ncco4)ccc3F)CC2)c2nc(-c3ccccn3)nn12 [3-(2-(4-(2-fluoro-5-(oxazol-2-yl)phenyl)piperazin-1-yl)ethyl)-8-(pyridin-2-yl)-3H-[1,2,4]triazolo[5,1-i]purin-5-amine]
A1/A2A Selectivity (A1AdoR): b (greater than 100 but less than or equal to 1000)
IC50 (human A2A AdoR): ≤ 0.02 µM
